Experimental data as given in US20250241994A1, “PHARMACEUTICAL FORMULATION OF GLUCAGON-LIKE PEPTIDE -1 RECEPTOR AGONIST PEPTIDE FOR SUBLINGUAL DELIVERY” (Immunwork Inc., priority 2024, published 2025).
≈ marks a conversion by molar mass, not a printed value.

What was measured:
[1] = Estimated bioavailability of sublingual relative to subcutaneous delivery (blood glucose lowering at 24 h); set-up: species or system db/db mice; conditions: male, db/db, mouse, in vivo, bioavailability of sublingually administered GLP-1 RA-P relative to subcutaneous administration
From the text: The term “bioavailability of GLP-1 RA-P” as used herein refers to an estimated bioavailability of a sublingually administered GLP-1 RA-P in relative to that achieved by subcutaneous injection. Accordingly, the “bioavailability of GLP-1 RA-P” is expressed as a percentage of bioavailability achieves by subcutaneous injected GLP-1 RA-P. To estimate the bioavailability of sublingual delivery in relative to subcutaneous delivery in db/db mice, the blood glucose-lowering effects of two sublingual doses of varying amounts were compared with one subcutaneous dose of a specific amount at the 24-hour time point (just before the third sublingual dose). […] By comparing the combined effect of the two sublingual doses to the subcutaneous dose, the relative bioavailability is estimated.
Further, blood glucose levels in db/db mice are highly sensitive to changes in GLP-1 RA-P drug concentrations, making glucose measurements a reliable indicator of the drug's availability in the bloodstream. In the experiments described in this study, the db/db mouse model was used to evaluate the efficiency of sublingual drug delivery, estimate bioavailability via sublingual versus subcutaneous administration, and examine the cumulative effects of repeated sublingual dosing.
For these experiments, 30 male db/db mice, aged 6 weeks and weighing 35-40 g, were used. […]

[2] = semaglutide: based on the known highest dosage form for subcutaneous injection; cited from earlier work

Structure (SMILES)	bioavailability at 24 h [1] [%]	solubility in aqueous buffer [2] [mg/mL]
CC[C@H](C)[C@H](NC(=O)[C@H](CC(C)C)NC(=O)[C@H](Cc1c[nH]c2ccccc12)NC(=O)[C@H](CCC(N)=O)NC(=O)[C@@H](NC(=O)[C@H](Cc1ccccc1)NC(=O)[C@H](C)NC(=O)[C@H](CCCCNC(=O)COCCOCCNC(=O)COCCOCCNC(=O)CC[C@H](NC(=O)CCCCCCCCCCCCCCCCCCC(=O)O)C(=O)O)NC(=O)[C@H](CCC(N)=O)NC(=O)[C@H](C)NC(=O)[C@@H](NC(=O)[C@H](CCCCN)NC(=O)[C@H](CC(=O)O)NC(=O)[C@H](CC(C)C)NC(=O)C(C)(C)NC(=O)[C@@H](NC(=O)[C@H](CO)NC(=O)[C@H](Cc1ccc(O)cc1)NC(=O)[C@H](CC(=O)O)NC(=O)[C@H](CO)NC(=O)[C@@H](NC(=O)[C@H](Cc1ccccc1)NC(=O)[C@@H](NC(=O)CNC(=O)[C@H](CCC(=O)O)NC(=O)C(C)(C)NC(=O)[C@@H](N)Cc1ccc(O)cc1)[C@@H](C)O)[C@@H](C)O)[C@@H](C)CC)[C@@H](C)CC)C(C)C)C(=O)N[C@@H](C)C(=O)NCC(=O)NCC(=O)N1CCC[C@H]1C(=O)N[C@@H](CO)C(=O)N[C@@H](CO)C(=O)NCC(=O)N[C@@H](C)C(=O)N1CCC[C@H]1C(=O)N1CCC[C@H]1C(=O)N1CCC[C@H]1C(=O)N[C@@H](CO)C(N)=O [tirzepatide]	10	
CC[C@H](C)[C@H](NC(=O)[C@H](Cc1ccccc1)NC(=O)[C@H](CCC(=O)O)NC(=O)[C@H](CCCCNC(=O)COCCOCCNC(=O)COCCOCCNC(=O)CC[C@H](NC(=O)CCCCCCCCCCCCCCCCC(=O)O)C(=O)O)NC(=O)[C@H](C)NC(=O)[C@H](C)NC(=O)[C@H](CCC(N)=O)NC(=O)CNC(=O)[C@H](CCC(=O)O)NC(=O)[C@H](CC(C)C)NC(=O)[C@H](Cc1ccc(O)cc1)NC(=O)[C@H](CO)NC(=O)[C@H](CO)NC(=O)[C@@H](NC(=O)[C@H](CC(=O)O)NC(=O)[C@H](CO)NC(=O)[C@@H](NC(=O)[C@H](Cc1ccccc1)NC(=O)[C@@H](NC(=O)CNC(=O)[C@H](CCC(=O)O)NC(=O)C(C)(C)NC(=O)[C@@H](N)Cc1cnc[nH]1)[C@@H](C)O)[C@@H](C)O)C(C)C)C(=O)N[C@@H](C)C(=O)N[C@@H](Cc1c[nH]c2ccccc12)C(=O)N[C@@H](CC(C)C)C(=O)N[C@H](C(=O)N[C@@H](CCCNC(=N)N)C(=O)NCC(=O)N[C@@H](CCCNC(=N)N)C(=O)NCC(=O)O)C(C)C [semaglutide]		3.2 (≈ 778 µM)
